Each compound was assayed against T1, Helicobacter pylori-derived urease (Helicobacter pylori, UniProt P69996) (assay: Screening of urease inhibitors (ammonia yield from urea)).
T1 construct: an urease solution prepared from Helicobacter pylori; endogenous in cells
Format: biochemical
Description: Screening of Urease Inhibitors
One hundred (100) μl of 100 mM Bis-Tris buffer (pH 6.5) and 60 μl of an urease solution prepared from Helicobacter pylori were added to 20 μl of a test drug dissolved in 0.1% dimethylformamide solution. The mixture was incubated at room temperature for 30 minutes, and then 20 μl of 100 mM urea was added. The mixture was kept at room temperature for 10 minutes, and then the yielded ammonia in the incubation mixture was measured using a commercial test kit (Ammonia Test Wako®; Wako Pure Chemical). The percent inhibition against the yield of ammonia in the solvent addition group was calculated to obtain the IC50 value.

T1 sequence (P69996 whole entry, looked up): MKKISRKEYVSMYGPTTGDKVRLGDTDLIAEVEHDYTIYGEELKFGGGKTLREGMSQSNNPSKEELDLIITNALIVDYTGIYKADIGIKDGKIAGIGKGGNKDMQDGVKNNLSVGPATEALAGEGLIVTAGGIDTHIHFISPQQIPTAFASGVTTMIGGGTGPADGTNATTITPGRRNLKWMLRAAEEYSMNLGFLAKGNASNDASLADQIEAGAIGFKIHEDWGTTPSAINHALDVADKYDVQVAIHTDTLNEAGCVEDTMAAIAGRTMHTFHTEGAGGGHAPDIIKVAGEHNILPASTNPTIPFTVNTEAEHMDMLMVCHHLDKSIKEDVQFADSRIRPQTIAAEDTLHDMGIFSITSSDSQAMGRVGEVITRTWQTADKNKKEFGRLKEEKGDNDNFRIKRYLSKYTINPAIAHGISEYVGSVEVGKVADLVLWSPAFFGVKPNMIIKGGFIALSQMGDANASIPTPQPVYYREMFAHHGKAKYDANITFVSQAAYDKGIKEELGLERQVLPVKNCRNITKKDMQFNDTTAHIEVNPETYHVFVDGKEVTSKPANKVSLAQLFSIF

Row | SMILES | IC50
1 | NP(N)(=O)NC(=O)Cc1cccs1 [Example 80, N-(Diaminophosphinyl)-2-thienylacetamide] | 4.4 nM
2 | NP(N)(=O)NC(=O)Cc1ccsc1 [Example 81, N-(Diaminophosphinyl)-3-thienylacetamide] | 7.9 nM
3 | NP(N)(=O)NC(=O)CCc1nc2ccccc2o1 [Example 82, N-(Diaminophosphinyl)-3-(2-benzoxazolyl)propionamide] | 27 nM
4 | NP(N)(=O)NC(=O)Cn1cnc2ccccc21 [Example 83, N-(Diaminophosphinyl)-1-benzimidazolylacetamide] | 7 nM
5 | NP(N)(=O)NC(=O)c1cc(Cl)cs1 [Example 84, N-(Diaminophosphinyl)-4-chloro-2-thiophenecarboxamide] | 2.5 nM
6 | Cc1cscc1C(=O)NP(N)(N)=O [Example 85, N-(Diaminophosphinyl)-4-methyl-3-thiophenecarboxamide] | 2.2 nM
7 | NP(N)(=O)NC(=O)c1cc(Br)sc1Cl [Example 86, N-(Diaminophosphinyl)-5-bromo-2-chloro-3-thiophenecarboxamide] | 0.9 nM
8 | Cc1c(C(=O)NP(N)(N)=O)csc1Cl [Example 87, N-(Diaminophosphinyl)-5-chloro-4-methyl-3-thiophenecarboxamide] | 2.5 nM
9 | Cc1c(Cl)sc(Cl)c1C(=O)NP(N)(N)=O [Example 88, N-(Diaminophosphinyl)-2,5-dichloro-4-methyl-3-thiophenecarboxamide] | 3.3 nM
10 | Cc1cc(C(=O)NP(N)(N)=O)c(Cl)s1 [Example 89, N-(Diaminophosphinyl)-2-chloro-5-methyl-3-thiophenecarboxamide] | 2.6 nM
11 | Cc1csc(C(=O)NP(N)(N)=O)c1Cl [Example 90, N-(Diaminophosphinyl)-3-chloro-4-methyl-2-thiophenecarboxamide] | 6.3 nM
12 | Cc1cc(C)c(C(=O)NP(N)(N)=O)s1 [Example 91, N-(Diaminophosphinyl)-3,5-dimethyl-2-thiophenecarboxamide] | 6.3 nM
13 | Cc1ccoc1C(=O)NP(N)(N)=O [Example 92, N-(Diaminophosphinyl)-3-methyl-2-furancarboxamide] | 6 nM
14 | NP(N)(=O)NC(=O)c1cccnc1 [Reference Example 2, N-(Diaminophosphinyl)-3-pyridinecarboxamide] | 9.6 nM
15 | NP(N)(=O)NC(=O)c1ccc([N+](=O)[O-])cc1 [Reference Example 3, N-(Diaminophosphinyl)-4-nitrobenzamide] | 6.6 nM
16 | NP(N)(=O)NC(=O)C=Cc1ccccc1 [Reference Example 4, N-(Diaminophosphinyl)cinnamamide] | 10 nM
17 | NP(N)(=O)NC(=O)Cc1ccccc1 [Reference Example 6, N-(Diaminophosphinyl)-phenylacetamide] | 15 nM
18 | NP(N)(=O)NC(=O)c1cccc(F)c1 [Reference Example 8, N-(Diaminophosphinyl)-3-fluorobenzamide] | 4.5 nM
19 | NP(N)(=O)NC(=O)c1c(F)cccc1F [Reference Example 9, N-(Diaminophosphinyl)-2,6-difluorobenzamide] | 9.7 nM
20 | NP(N)(=O)NC(=O)c1ccc(F)cc1F [Reference Example 10, N-(Diaminophosphinyl)-2,4-difluorobenzamide] | 7.8 nM
21 | COc1ccc(C(=O)NP(N)(N)=O)cc1 [Reference Example 12, N-(diaminophosphinyl)-4-methoxybenzamide] | 44 nM
22 | Cc1ccc(C(=O)NP(N)(N)=O)cc1 [Reference Example 15, N-(Diaminophosphinyl)-4-methylbenzamide] | 17 nM
23 | NP(N)(=O)NC(=O)c1ccccc1F [Reference Example 16, N-(Diaminophosphinyl)-2-fluorobenzamide] | 2.7 nM
24 | NP(N)(=O)NC(=O)CCc1ccccc1 [Reference Example 37, N-(Diaminophosphinyl)-3-phenylpropionamide] | 17 nM

Reference: patent US5840917A, “Phosphorylamides, their preparation and use” (Takeda Chemical Industries, Ltd., priority 1995, dated 1998)
